# From patent US8404729B2, “Heterocyclic tetracyclic tetrahydrofuran derivatives” (Janssen Pharmaceutica, NV, priority 2005, dated 2013)
# Legend:
# [1] = target: T1, 5-HT2C receptors (Sus scrofa, UniProt K7GSR7); test: In vitro binding affinity for 5-HT2C receptor (3H-mesulergine radioligand binding); conditions: choroid plexus of the pig, read-out: 5-HT2C (pIC50) (converted)
# T1 construct: the tissue used is the choroid plexus of the pig; from tissue; host or cells: pig choroid plexus
# T1 sequence (K7GSR7 1-457): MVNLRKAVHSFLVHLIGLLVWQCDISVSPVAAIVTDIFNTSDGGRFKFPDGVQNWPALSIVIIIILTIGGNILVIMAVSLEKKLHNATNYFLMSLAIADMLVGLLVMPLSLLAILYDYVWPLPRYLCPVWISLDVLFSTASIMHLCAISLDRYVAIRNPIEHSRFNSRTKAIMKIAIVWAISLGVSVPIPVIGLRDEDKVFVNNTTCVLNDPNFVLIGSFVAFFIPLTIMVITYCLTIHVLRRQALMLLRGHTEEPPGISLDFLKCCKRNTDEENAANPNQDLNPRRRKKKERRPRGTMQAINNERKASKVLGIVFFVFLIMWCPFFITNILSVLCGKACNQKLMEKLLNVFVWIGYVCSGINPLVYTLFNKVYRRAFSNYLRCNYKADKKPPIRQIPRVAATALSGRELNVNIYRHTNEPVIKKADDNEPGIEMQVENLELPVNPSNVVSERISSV
# Protocol: (§1) The interaction of the compounds of Formula (I) with 5-HT2A and 5-HT2C receptors was assessed in in vitro radioligand binding experiments. In general, a low concentration of a radioligand with a high binding affinity for the receptor is incubated with a sample of a tissue preparation enriched in a particular receptor (1 to 5 mg tissue) in a buffered medium (0.2 to 5 ml). During the incubation, the radioligands bind to the receptor. When equilibrium of binding is reached, the receptor bound radioactivity is separated from the non-bound radioactivity, and the receptor bound activity is counted. The interaction of the test compounds with the receptors is assessed in competition binding experiments. Various concentrations of the test compound are added to the incubation mixture containing the tissue preparation and the radioligand. Binding of the radioligand will be inhibited by the test compound in proportion to its binding affinity and its concentration. The radioligand used for 5-HT2A binding affinity is ^3H-ketanserin and the tissue used is the frontal cortex of the rat. The radioligand used for 5-HT2c binding affinity is ^3H-mesulergine and the tissue used is the choroid plexus of the pig.
# [2] = target: T2, human Dopamine D2L receptor (Homo sapiens, UniProt P14416); test: In vitro binding affinity for human D2L receptor ([3H]Spiperone); conditions: membranes of human D2L receptor-transfected CHO cells, read-out: D2 (pIC50) (converted)
# T2 construct: expressed in transfected cells; host or cells: CHO cells
# Protocol: Frozen membranes of human Dopamine D2L receptor-transfected CHO cells were thawed, briefly homogenised using an Ultra-Turrax T25 homogeniser and diluted in Tris-HCl assay buffer containing NaCl, CaCl2, MgCl2, KCl (50, 120, 2, 1, and 5 mM respectively, adjusted to pH 7.7 with HCl) to an appropriate protein concentration optimised for specific and non-specific binding. Radioligand [^3H]Spiperone (NEN, specific activity ˜70 Ci/mmol) was diluted in assay buffer at a concentration of 2 nmol/L. Prepared radioligand (50 μl), along with 50 μl of either the 10% DMSO control, Butaclamol (10^−6 mol/l final concentration), or compound of interest, was then incubated (30 min, 37° C.) with 400 μl of the prepared membrane solution. Membrane-bound activity was filtered through a Packard Filtermate harvester onto GF/B Unifilterplates and washed with ice-cold Tris-HCl buffer (50 mM; pH 7.7; 6×0.5 ml). Filters were allowed to dry before adding scintillation fluid and counting in a Topcount scintillation counter. Percentage specific bound and competition binding curves were calculated using S-Plus software (Insightful).
# [3] = target: T3, NET (Rattus norvegicus, UniProt Q63380); test: In vitro determination of NET reuptake inhibition ([3H]Nixosetine binding); conditions: rat brain cortex membranes, read-out: NET-inhibition (pIC50) (converted)
# T3 construct: Cortex from rat brain was collected and homogenised; from tissue; host or cells: rat brain cortex
# Protocol: Cortex from rat brain was collected and homogenised using an Ultra-Turrax T25 and a Dual homogeniser in ice-cold homogenising buffer containing Tris, NaCl and KCl (50 mM, 120 mM and 5 mM, respectively, pH 7.4) prior to dilution to an appropriate protein concentration optimised for specific and non-specific binding. […] Membrane-bound activity was detected by filtration through a Packard Filtermate harvester onto GF/B Unifilterplates, washed with ice-cold Tris-HCl buffer, containing NaCl and KCl (50 mM, 120 mM and 4 mM; pH 7.4; 6×0.5 ml). Filters were allowed to dry for 24 h before adding scintillation fluid. Scintillation fluid was allowed to saturate filters for 24 h before counting in a Topcount scintillation counter. Percentage specific bound and competition binding curves were calculated using S-Plus software (Insightful).
# [4] = target: T4, 5-HT2A receptors (Rattus norvegicus, UniProt P14842); test: In vitro binding affinity for 5-HT2A receptor (3H-ketanserin radioligand binding); conditions: frontal cortex of the rat, read-out: 5-HT2A (pIC50) (converted)
# T4 construct: the tissue used is the frontal cortex of the rat; from tissue; host or cells: rat frontal cortex
# Protocol: as §1, with “In general, a low concentration of a radioligand with a high binding affinity for the receptor is incubated with a sample of a tissue preparation enriched in a particular receptor (1 to 5 mg tissue) in a buffered medium (0.2 to 5 ml).” left out
# T3 sequence (Q63380 1-617): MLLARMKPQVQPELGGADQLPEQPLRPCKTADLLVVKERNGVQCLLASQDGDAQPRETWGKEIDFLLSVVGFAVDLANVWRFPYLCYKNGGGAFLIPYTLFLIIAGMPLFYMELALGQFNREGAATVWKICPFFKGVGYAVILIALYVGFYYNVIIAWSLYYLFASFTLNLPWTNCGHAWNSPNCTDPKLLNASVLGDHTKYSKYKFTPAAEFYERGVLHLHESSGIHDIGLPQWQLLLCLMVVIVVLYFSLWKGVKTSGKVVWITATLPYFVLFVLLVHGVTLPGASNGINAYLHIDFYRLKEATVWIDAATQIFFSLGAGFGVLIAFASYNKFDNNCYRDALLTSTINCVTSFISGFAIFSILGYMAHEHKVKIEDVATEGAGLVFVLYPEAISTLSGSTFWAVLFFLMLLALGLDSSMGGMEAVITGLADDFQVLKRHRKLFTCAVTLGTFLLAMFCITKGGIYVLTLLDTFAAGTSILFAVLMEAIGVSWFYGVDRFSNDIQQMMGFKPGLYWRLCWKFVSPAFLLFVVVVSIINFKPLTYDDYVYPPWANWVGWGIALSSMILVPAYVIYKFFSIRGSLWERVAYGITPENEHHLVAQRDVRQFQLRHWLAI
# T2 sequence (P14416 whole entry): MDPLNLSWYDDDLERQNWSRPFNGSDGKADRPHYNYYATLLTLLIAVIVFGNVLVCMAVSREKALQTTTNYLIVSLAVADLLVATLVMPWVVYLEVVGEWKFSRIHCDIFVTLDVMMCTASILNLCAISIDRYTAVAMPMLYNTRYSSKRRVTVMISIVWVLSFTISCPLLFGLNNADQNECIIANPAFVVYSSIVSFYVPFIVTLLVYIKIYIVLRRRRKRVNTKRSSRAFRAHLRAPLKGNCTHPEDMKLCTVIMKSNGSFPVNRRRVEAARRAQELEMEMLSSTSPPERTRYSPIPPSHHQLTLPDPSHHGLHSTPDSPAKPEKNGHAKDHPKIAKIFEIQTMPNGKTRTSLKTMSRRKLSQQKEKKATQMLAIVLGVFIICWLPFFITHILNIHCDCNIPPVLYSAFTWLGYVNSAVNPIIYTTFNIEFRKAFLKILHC
# T4 sequence (P14842 whole entry): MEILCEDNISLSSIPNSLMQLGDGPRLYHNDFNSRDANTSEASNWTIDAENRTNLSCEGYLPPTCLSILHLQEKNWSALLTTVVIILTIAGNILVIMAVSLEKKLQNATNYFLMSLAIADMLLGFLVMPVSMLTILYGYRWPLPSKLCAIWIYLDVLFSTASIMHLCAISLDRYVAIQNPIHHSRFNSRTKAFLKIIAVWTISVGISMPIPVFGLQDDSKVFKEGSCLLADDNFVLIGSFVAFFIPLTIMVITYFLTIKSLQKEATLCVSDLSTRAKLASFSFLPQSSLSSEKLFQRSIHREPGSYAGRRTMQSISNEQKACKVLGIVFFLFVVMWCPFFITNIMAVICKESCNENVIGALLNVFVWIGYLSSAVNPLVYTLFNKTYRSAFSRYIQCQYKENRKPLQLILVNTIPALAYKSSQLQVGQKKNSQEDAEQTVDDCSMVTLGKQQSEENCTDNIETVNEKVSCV
SMILES,IC50 [1] [nM],IC50 [2] [nM],IC50 [3] [nM],IC50 [4] [nM]
CN(C)C1CCN(C[C@H]2C[C@@H]3c4ccccc4Sc4sccc4C3O2)C1 (relative stereo) [Compound 27],50.1,398,> 10000,
OCCN1CCN(C[C@H]2C[C@@H]3c4ccccc4Sc4sccc4[C@H]3O2)CC1 (relative stereo) [Compound 15],251,251,2510,200
c1ccc2c(c1)Sc1sccc1[C@@H]1O[C@@H](CN3CCC4(CC3)OCCO4)C[C@@H]21 (relative stereo) [Compound 13],100,20,> 10000,5.01
CN(CCO)C[C@H]1C[C@H]2c3ccccc3Sc3sccc3[C@@H]2O1 (relative stereo) [Compound 10],20,200,200,12.6
CN(C)CC1CC2c3ccccc3Cc3ccsc3C2O1 (stereo not drawn) [Compound 35],15.8,794,501,6.31
CNCC1CC2c3ccccc3N(Cc3ccccc3)c3ncccc3C2O1 (mixture of isomers) [Compound 37],100,1580,1260,
CNC[C@H]1C[C@@H]2c3ccccc3Sc3sccc3[C@H]2O1 (racemic) [Compound 32],,2000,39.8,
OCCC1CCN(CC2CC3c4ccccc4Sc4sccc4C3O2)CC1 (stereo not drawn) [Compound 11],39.8,6.31,7940,3.16
CNCC1CC2c3ccccc3Cc3sccc3C2O1 (stereo not drawn) [Compound 6],39.8,2510,2000,39.8
CNC[C@H]1C[C@H]2c3ccccc3Sc3sccc3[C@@H]2O1 (relative stereo) [Compound 21],3.98,501,126,< 10
CN(C)CC1CC2c3ccccc3Sc3sccc3C2O1 (stereo not drawn) [Compound 9],25.1,398,316,15.8
CNC[C@H]1C[C@@H]2c3ccccc3Sc3sccc3[C@H]2O1 (racemic) [Compound 20],50.1,1260,63.1,79.4
OC1CCN(C[C@H]2C[C@H]3c4ccccc4Sc4sccc4[C@@H]3O2)C1 (relative stereo) [Compound 23],3.98,251,3160,< 10
COC(=O)c1cc2c(s1)Sc1ccccc1[C@H]1C[C@H](CN(C)C)O[C@H]21 [Compound 4],158,3980,631,
CN(C)C[C@@H]1C[C@@H]2c3ccccc3Sc3sccc3[C@H]2O1 [Compound 2],7.94,200,63.1,< 10
CNCC1CC2c3ccccc3N(Cc3ccccc3)c3ncccc3C2O1 (stereo not drawn) [Compound 36],631,6310,5010,
c1ccc2c(c1)Sc1sccc1[C@H]1O[C@@H](CN3CCC4(CC3)OCCO4)C[C@H]21 (relative stereo) [Compound 17],100,158,> 10000,39.8
CNCC1CC2c3ccccc3Cc3sccc3C2O1 (stereo not drawn) [Compound 7],20,3160,2510,251
CN(CCO)CC1CC2c3ccccc3Sc3sccc3C2O1 (racemic) [Compound 25],10,200,126,10
CN(C)C[C@H]1C[C@@H]2c3ccccc3Sc3sc(CO)cc3[C@H]2O1 (racemic) [Compound 5],20,200,398,
OCCN1CCN(C[C@H]2C[C@H]3c4ccccc4Sc4sccc4[C@@H]3O2)CC1 (relative stereo) [Compound 12],251,31.6,> 10000,12.6
CCOC(=O)c1cc2c(s1)Sc1ccccc1C1CC(CN(C)C)OC21 (stereo not drawn) [Compound 34],316,3980,2510,158
CNCC1CC2c3ccccc3Cc3sccc3C2O1 (stereo not drawn) [Compound 8],63.1,3160,1000,> 10000
CN(CCO)C[C@H]1C[C@@H]2c3ccccc3Sc3sccc3[C@H]2O1 (relative stereo) [Compound 18],39.8,,31.6,39.8
OC1CCN(C[C@H]2C[C@@H]3c4ccccc4Sc4sccc4[C@H]3O2)C1 (relative stereo) [Compound 16],15.8,158,3160,20
CN(C)CC1CC2c3ccccc3Cc3sccc3C2O1 (stereo not drawn) [Compound 33],50.1,794,1000,100
"CNCC1CC2c3ccccc3Sc3sccc3C2O1 (single isomer, unassigned) [Compound 31]",27.5,1260,1000,
CN(C)C1CCN(C[C@H]2C[C@H]3c4ccccc4Sc4sccc4[C@@H]3O2)C1 (relative stereo) [Compound 29],251,794,> 10000,
